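The compound was tested at five concentrations on cells cultured in 96-well plates, with a 48-hour exposure period. Abbreviation: GI50, concentration required for 50% inhibition of growth.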 Activity calls are given as the source filed them. No stated cut-off is given here; in the data, active = GI50 up to about 1.1 µM and inactive = higher.
How the values were obtained:
Experiment in all cases: growth of human tumour cells (NCI), 48 h
HT-29 = test system: HT-29
SK-MEL-5 = test system: SK-MEL-5
K562 = test system: K562
NCI/ADR-RES = test system: NCI/ADR-RES
SW-620 = test system: SW-620
M14 = test system: M14
CAKI-1 = test system: CAKI-1
T47D = test system: T47D
U-251 = test system: U-251
DU-145 = test system: DU-145
OVCAR-4 = test system: OVCAR-4
SR = test system: SR
SK-OV-3 = test system: SK-OV-3
LOX IMVI = test system: LOX IMVI
CCRF-CEM = test system: CCRF-CEM
HOP-92 = test system: HOP-92
A498 = test system: A498
SNB-19 = test system: SNB-19
BT-549 = test system: BT-549

Measured: GI50

CCCCC1Cc2ccccc2-c2nc3ccccc3n21 (stereo not given)
inactive: HT-29 14.5 µM | SK-MEL-5 14.6 µM | K562 12.6 µM | NCI/ADR-RES 15.7 µM | SW-620 16.4 µM | M14 18.1 µM | CAKI-1 15.5 µM | T47D 7.06 µM | U-251 16.4 µM | DU-145 18.4 µM | OVCAR-4 12.9 µM | SR 5.57 µM | SK-OV-3 20.5 µM | LOX IMVI 16 µM | HOP-92 16.4 µM | A498 16.7 µM
active: CCRF-CEM 0.0153 µM

CC(=O)OCC1OC(Sc2ccccn2)C=CC1OC(C)=O (stereo not given)
inactive: HT-29 > 100 µM | SK-MEL-5 > 100 µM | K562 > 100 µM | SW-620 > 100 µM | M14 > 100 µM | U-251 > 100 µM | OVCAR-4 > 100 µM | SR > 100 µM | SK-OV-3 > 100 µM | LOX IMVI > 100 µM | CCRF-CEM > 100 µM | HOP-92 > 100 µM | A498 > 100 µM | SNB-19 > 100 µM

CC(C)SC(C)(NC(=O)C1C(C)(C)CCC1(C)C)C(=O)O (stereo not given)
inactive: SK-MEL-5 > 100 µM | K562 > 100 µM | NCI/ADR-RES > 100 µM | SW-620 > 100 µM | M14 > 100 µM | T47D > 100 µM | U-251 > 100 µM | DU-145 > 100 µM | SR > 100 µM | SK-OV-3 > 100 µM | LOX IMVI > 100 µM | CCRF-CEM > 100 µM | HOP-92 > 100 µM | A498 > 100 µM | SNB-19 > 100 µM

Cc1cc2[nH]c3c(C#N)c(-c4ccccc4)c(/C=N/c4cccc(C(F)(F)F)c4)c(=O)n3c2cc1C
inactive: SK-MEL-5 > 100 µM | NCI/ADR-RES > 100 µM | SW-620 59.7 µM | M14 > 100 µM | CAKI-1 89.9 µM | T47D 45 µM | U-251 > 100 µM | OVCAR-4 99.5 µM | BT-549 91.6 µM | SK-OV-3 99.5 µM | LOX IMVI 97.9 µM | CCRF-CEM 72.8 µM | A498 > 100 µM | SNB-19 > 100 µM

Nc1ccc2nc(-c3cccc(Cl)c3)cc(O)c2c1
inactive: HT-29 3.41 µM | SK-MEL-5 3.58 µM | NCI/ADR-RES 3.56 µM | SW-620 3.55 µM | M14 5.56 µM | T47D 5.96 µM | U-251 3.2 µM | BT-549 5.45 µM | SK-OV-3 4.82 µM | CCRF-CEM 2.14 µM | HOP-92 2.84 µM | SNB-19 5.83 µM

O=C(O)c1cc2ccccc2oc1=O [COUMARIN-3-CARBOXYLIC ACID]
inactive: HT-29 > 100 µM | SK-MEL-5 > 100 µM | K562 > 100 µM | NCI/ADR-RES > 100 µM | SW-620 > 100 µM | M14 > 100 µM | CAKI-1 > 100 µM | U-251 > 100 µM | DU-145 > 100 µM | OVCAR-4 > 100 µM | SR > 100 µM | BT-549 > 100 µM | LOX IMVI > 100 µM | CCRF-CEM > 100 µM | HOP-92 > 100 µM | A498 > 100 µM | SNB-19 > 100 µM

CCCCCCC1CCC2CCCC(C)N12 (stereo not given)
inactive: HT-29 > 10 µM | SK-MEL-5 49.8 µM | K562 13.8 µM | SW-620 14.8 µM | M14 25.3 µM | CAKI-1 > 100 µM | U-251 10.5 µM | OVCAR-4 46.2 µM | SR 23.2 µM | CCRF-CEM 19 µM | HOP-92 25.8 µM | SNB-19 > 100 µM

CC(=O)O[C@@H]1C=C(C)[C@H](CBr)O[C@@]2(C)CC[C@H](Br)C(C)(C)[C@H]12
inactive: HT-29 > 100 µM | SK-MEL-5 > 100 µM | K562 25.3 µM | NCI/ADR-RES 2.94 µM | SW-620 > 100 µM | M14 > 100 µM | CAKI-1 > 100 µM | U-251 > 100 µM | DU-145 > 100 µM | OVCAR-4 > 100 µM | SR 41.2 µM | BT-549 > 100 µM | SK-OV-3 > 100 µM | LOX IMVI > 100 µM | CCRF-CEM 19.4 µM | HOP-92 > 100 µM | A498 > 100 µM | SNB-19 > 100 µM

COc1ccc2c(c1)c(CC(=O)O)c(C)n2C(=O)c1ccc(Cl)cc1
inactive: HT-29 > 100 µM | SK-MEL-5 > 100 µM | K562 13.7 µM | NCI/ADR-RES > 100 µM | SW-620 > 100 µM | M14 > 100 µM | CAKI-1 29.6 µM | T47D 52.6 µM | U-251 43.1 µM | DU-145 > 100 µM | OVCAR-4 > 100 µM | SR 16.3 µM | LOX IMVI > 100 µM | CCRF-CEM 33.8 µM | HOP-92 4.42 µM | SNB-19 56.9 µM

Reference: ChEMBL document CHEMBL1201862, “PubChem BioAssay data set” (2004)
